Measurements as given in patent US10227331B2 (priority 2015, dated 2019).

Legend:
[1] = system: Escherichia coli expressing NDM-1 (CLB30005, CLB30016); type: cell-based; conditions: with imipenem 1 μg/ml; 95% inhibition of bacterial growth
In short: (§1)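 Colonies from overnight 35 °C blood-agar cultures were suspended in saline, diluted 1:100 into 1.1× CAMHB and exposed to test compound with or without imipenem at 1 μg/ml. After 22–24 h at 35 °C, absorbance was read to find the concentration restoring imipenem susceptibility.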

[2] = system: Serratia marcescens expressing IMP-1 (CL5741); type: cell-based; conditions: with imipenem 1 μg/ml; 95% inhibition of bacterial growth
In short: as §1

[3] = system: Klebsiella pneumoniae expressing VIM-1 (IHMA599644); type: cell-based; conditions: with imipenem 1 μg/ml; 95% inhibition of bacterial growth
In short: as §1

[4] = system: P. aeruginosa expressing IMP-1, efflux− (MB9799); assay: Efflux: concentration of MBL inhibitor which restores susceptibility to imipenem; type: cell-based, Pseudomonas aeruginosa; conditions: imipenem at 2 μg/mL, in the presence of a class A, C, D serine β-lactamase inhibitor closely related to relebactam
Source text: (§2) The strain background is Pseudomonas aeruginosa PAO1.

[5] = target: IMP-1 (Serratia marcescens, UniProt P52699); assay: biochemical; type: biochemical; conditions: CCF2-FA substrate, 2 hours at 25° C; read-out: IMP-1 IC50
Sequence of IMP-1 (P52699 whole entry, looked up, species assumed): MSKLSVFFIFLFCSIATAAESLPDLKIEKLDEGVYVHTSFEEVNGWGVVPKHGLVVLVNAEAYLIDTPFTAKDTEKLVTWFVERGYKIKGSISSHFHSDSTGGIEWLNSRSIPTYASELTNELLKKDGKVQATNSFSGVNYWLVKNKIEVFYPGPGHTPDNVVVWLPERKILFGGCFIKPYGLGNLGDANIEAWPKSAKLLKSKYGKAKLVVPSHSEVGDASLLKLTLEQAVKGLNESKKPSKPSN
In short: (§3)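 Two-hour, 25° C incubation of enzyme with inhibitor and CCF2-FA (7-hydroxycoumarin–cephalosporin–fluorescein). Fluorescence read-out; IC50 via 4-parameter fit.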

[6] = target: NDM-1 (Klebsiella pneumoniae, UniProt C7C422); assay: biochemical; type: biochemical; conditions: CCF2-FA substrate, 2 hours at 25° C; read-out: NDM-1 IC50
Sequence of NDM-1 (C7C422 whole entry, looked up, species assumed): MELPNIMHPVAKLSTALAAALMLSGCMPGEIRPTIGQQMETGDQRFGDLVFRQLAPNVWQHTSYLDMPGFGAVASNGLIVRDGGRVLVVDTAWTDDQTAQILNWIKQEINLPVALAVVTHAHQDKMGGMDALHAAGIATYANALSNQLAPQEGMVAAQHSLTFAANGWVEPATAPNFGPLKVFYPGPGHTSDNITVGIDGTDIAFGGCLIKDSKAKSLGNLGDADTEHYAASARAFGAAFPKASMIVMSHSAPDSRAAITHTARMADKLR
In short: as §3

[7] = target: VIM-1 (Pseudomonas aeruginosa (strain ATCC 15692 / DSM 22644 / CIP 104116 / JCM 14847 / LMG 12228 / 1C / PRS 101 / PAO1), UniProt A0A0F7KYQ8); assay: biochemical; conditions: CCF2-FA substrate, 2 hours at 25° C
In short: as §3

[8] = system: P. aeruginosa expressing IMP-1, efflux+ (MB9798); type: cell-based, Pseudomonas aeruginosa; conditions: for P. aeruginosa expressing IMP-1, efflux+ (MB9798) MITC95: imipenem at 2 μg/mL, in the presence of a class A, C, D serine β-lactamase inhibitor closely related to relebactam; for Efflux ratio: ratio MITC95 PA_9798/MITC95 PA_9799
Source text: as §2

| SMILES | Escherichia coli expressing NDM-1 (CLB30016) MITC95 [1] [µM] | Serratia marcescens expressing IMP-1 (CL5741) MITC95 [2] [µM] | Klebsiella pneumoniae expressing VIM-1 (IHMA599644) MITC95 [3] [µM] | P. aeruginosa expressing IMP-1, efflux− (MB9799) MITC95 [4] [µM] | IC50 [5] [nM] | IC50 [6] [nM] | IC50 [7] [nM] | P. aeruginosa expressing IMP-1, efflux+ (MB9798) MITC95 [8] [µM] | Efflux ratio [8] |
| --- | --- | --- | --- | --- | --- | --- | --- | --- | --- |
| N#Cc1ccc(-c2ccc(S(=O)(=O)CCN)c(S(N)(=O)=O)c2-c2nnn[nH]2)cn1.O=C(O)C(F)(F)F [Example 144, 2-((4-(6-cyanopyridin-3-yl)-2-sulfamoyl-3-(1H-tetrazol-5-yl)phenyl)sulfonyl)ethanaminium 2,2,2-trifluoroacetate] | 0.7813 | 3.125 | 3.125 | 1.563 | 5.59 | 7.21 | 3.04 | 50 | 31.99 |
| NCCS(=O)(=O)c1ccc(-c2ccc(CO)nc2)c(-c2nnn[nH]2)c1S(N)(=O)=O.O=C(O)C(F)(F)F [Example 145, 2-((4-(6-(hydroxymethyl)pyridin-3-yl)-2-sulfamoyl-3-(1H-tetrazol-5-yl)phenyl)sulfonyl)ethanaminium 2,2,2-trifluoroacetate] | 1.563 | 3.125 | 6.25 | 1.563 | 4.84 | 4.31 | 1.25 | 12.5 | 8.00 |
| NCCS(=O)(=O)c1ccc(-c2ccc3nncn3c2)c(-c2nnn[nH]2)c1S(N)(=O)=O.O=C(O)C(F)(F)F [Example 146, 2-((4-([1,2,4]triazolo[4,3-a]pyridin-6-yl)-2-sulfamoyl-3-(1H-tetrazol-5-yl)phenyl)sulfonyl)ethanaminium 2,2,2-trifluoroacetate] | 0.7813 | 3.125 | 6.25 | 1.563 | 44.4 | 20.6 | 1.32 | 100 | 63.98 |
| NCCS(=O)(=O)c1ccc(-c2cccc(N3CCCC3=O)n2)c(-c2nnn[nH]2)c1S(N)(=O)=O.O=C(O)C(F)(F)F [Example 147, 2-((4-(6-(2-oxopyrrolidin-1-yl)pyridin-2-yl)-2-sulfamoyl-3-(1H-tetrazol-5-yl)phenyl)sulfonyl)ethanaminium 2,2,2-trifluoroacetate] | 6.25 | 6.25 | 6.25 | 1.563 | 4.1 | 3.12 | 0.519 | 100 | 63.98 |
| NCCS(=O)(=O)c1ccc(-c2cncc3ccccc23)c(-c2nnn[nH]2)c1S(N)(=O)=O.O=C(O)C(F)(F)F [Example 148, 2-((4-(isoquinolin-4-yl)-2-sulfamoyl-3-(1H-tetrazol-5-yl)phenyl)sulfonyl)ethanaminium 2,2,2-trifluoroacetate] | 3.125 | 3.125 | 3.125 | 1.563 | 0.983 | 0.608 | 0.434 | 3.125 | 2.00 |
| NCCS(=O)(=O)c1ccc(-c2cnc3[nH]ccc3c2)c(-c2nnn[nH]2)c1S(N)(=O)=O.O=C(O)C(F)(F)F [Example 149, 2-((4-(1H-pyrrolo[2,3-b]pyridin-5-yl)-2-sulfamoyl-3-(1H-tetrazol-5-yl)phenyl)sulfonyl)ethanaminium 2,2,2-trifluoroacetate] | 1.563 | 3.125 | 3.125 | 0.7813 | 0.856 | 0.534 | 0.185 | 6.25 | 8.00 |
| NCCS(=O)(=O)c1ccc(-c2cccc3[nH]c(=O)[nH]c23)c(-c2nnn[nH]2)c1S(N)(=O)=O.O=C(O)C(F)(F)F [Example 150, 2-((4-(2-oxo-2,3-dihydro-1H-benzo[d]imidazol-4-yl)-2-sulfamoyl-3-(1H-tetrazol-5-yl)phenyl)sulfonyl)ethanaminium 2,2,2-trifluoroacetate] | 3.125 | 3.125 | 3.125 | 1.563 | 0.931 | 0.497 | 0.44 | 1.563 | 1.00 |
| NCCS(=O)(=O)c1ccc(-c2ccc(-c3nn[nH]n3)cc2)c(-c2nnn[nH]2)c1S(N)(=O)=O.O=C(O)C(F)(F)F [Example 151, 2-((3-sulfamoyl-2-(1H-tetrazol-5-yl)-4′-(2H-tetrazol-5-yl)-[1,1′-biphenyl]-4-yl)sulfonyl)ethanaminium 2,2,2-trifluoroacetate] | 12.5 | 12.5 | 25 | 3.125 | 0.191 | 0.271 | 0.544 | 12.5 | 4.00 |
| NCCS(=O)(=O)c1ccc(-c2cnn3c2CCC3)c(-c2nnn[nH]2)c1S(N)(=O)=O.O=C(O)C(F)(F)F [Example 152, 2-((4-(5,6-dihydro-4H-pyrrolo[1,2-b]pyrazol-3-yl)-2-sulfamoyl-3-(1H-tetrazol-5-yl)phenyl)sulfonyl)ethanaminium 2,2,2-trifluoroacetate] | 3.125 | 6.25 | 6.25 | 1.563 | 4.79 | 5.83 | 2.01 | 50 | 31.99 |
| Cn1cc2cc(-c3ccc(S(=O)(=O)CCN)c(S(N)(=O)=O)c3-c3nnn[nH]3)ccc2n1.O=C(O)C(F)(F)F [Example 153, 2-((4-(2-methyl-2H-indazol-5-yl)-2-sulfamoyl-3-(1H-tetrazol-5-yl)phenyl)sulfonyl)ethanaminium 2,2,2-trifluoroacetate] | 1.563 | 3.125 | 3.125 | 1.563 | 0.457 | 0.593 | 0.309 | 6.25 | 4.00 |
| Cn1cc2ccc(-c3ccc(S(=O)(=O)CCN)c(S(N)(=O)=O)c3-c3nnn[nH]3)cc2n1.O=C(O)C(F)(F)F [Example 154, 2-((4-(2-methyl-2H-indazol-6-yl)-2-sulfamoyl-3-(1H-tetrazol-5-yl)phenyl)sulfonyl)ethanaminium 2,2,2-trifluoroacetate] | 3.125 | 3.125 | 6.25 | 1.563 | 0.676 | 1.13 | 0.43 | 12.5 | 8.00 |
| NCCS(=O)(=O)c1ccc(-c2ccc3[nH]c(=O)oc3c2)c(-c2nnn[nH]2)c1S(N)(=O)=O.O=C(O)C(F)(F)F [Example 155, 2-((4-(2-oxo-2,3-dihydrobenzo[d]oxazol-6-yl)-2-sulfamoyl-3-(1H-tetrazol-5-yl)phenyl)sulfonyl)ethanaminium 2,2,2-trifluoroacetate] | 0.7813 | 1.563 | 1.563 | 0.7813 | 0.226 | 0.814 | 0.289 | 3.125 | 4.00 |
